Data taken from patent publication US9688721B2, “Tubulysin compounds, methods of making and use” (priority 2013, dated 2017).
pEC50: −log10 of the molar value. Like-named read-outs stand apart in the source and are kept apart here.

Columns and labels:
N87 gastric cancer cells = settings: ATP luminescence assay
Method: (§1) Tumor cell lines were obtained from the American Type Culture Collection (ATCC), P.O. Box 1549, Manassas, Va. 20108, USA, and cultured according to ATCC instructions. Cells were seeded at 1.0×10^3 cells/well in 96-well plates for 3 h for the ATP assays. 1:3 serial dilutions of the compounds were added to the wells. Plates were allowed to incubate for 24 to 72 h. […] The EC50 values—the concentration at which an agent inhibits or reduces cell proliferation by 50%—were determined using PRISM™ software, version 4.0 (GraphPad Software, La Jolla, Calif., USA).

H226 lung cancer cells = test: ATP luminescence assay (CELLTITER-GLO), H226 cells; format: cell-based
Method: (§2) As controls, doxorubicin and the tubulysin analog Compound A, which contains an acetate group instead of a carbamate group at the Tuv subunit, were used. Compound A can be prepared according to the teachings of Cheng et al. 2011.
as §1

786-O renal cancer cells = test: ATP luminescence assay (CELLTITER-GLO), 786-O cells; format: cell-based
Method: as §2, §1

Row | SMILES | pEC50 (H226 lung cancer cells; Homo sapiens, NCI-H226) | pEC50 (786-O renal cancer cells; Homo sapiens, 786-0) | further results
1 | CC[C@H](C)[C@H](NC(=O)[C@H]1CCCCN1C)C(=O)N(C)[C@H](C[C@@H](OC(=O)Nc1ccccc1)c1nc(C(=O)N[C@@H](Cc2ccc(N)cc2)C[C@H](C)C(=O)O)cs1)C(C)C [Compound 75b] |  |  | pEC50 (N87 gastric cancer cells): 9.41
2 | CC[C@H](C)[C@H](NC(=O)[C@H]1CCCCN1C)C(=O)N(CCc1ccc(N)cc1)[C@H](C[C@@H](OC(=O)NC)c1nc(C(=O)N[C@@H](Cc2ccccc2)CC(C)C(=O)O)cs1)C(C)C (some centres unmarked) [(I-7)] | 7.81 | 7.90 | 
3 | CC[C@H](C)[C@H](NC(=O)[C@H]1CCCCN1C)C(=O)N(COC(=O)CC(C)C)[C@H](C[C@@H](OC(C)=O)c1nc(C(=O)N[C@@H](Cc2ccccc2)C[C@H](C)C(=O)O)cs1)C(C)C [tubulysin D, reference compound] |  |  | pEC50 (H226 lung cancer cells; H226 lung cancer cells, ATP luminescence assay, read-out: EC50): 10.30; pEC50 (786-O renal cancer cells; 786-O renal cancer cells, ATP luminescence assay, read-out: EC50): 10.70
4 | COc1cccc2c1C(=O)c1c(O)c3c(c(O)c1C2=O)C[C@@](O)(C(=O)CO)C[C@@H]3O[C@H]1C[C@H](N)[C@H](O)[C@H](C)O1 [doxorubicin, reference compound] |  |  | pEC50 (H226 lung cancer cells; Homo sapiens, NCI-H226, H226 lung cancer cells, ATP luminescence assay, read-out: EC50): 6.94; pEC50 (786-O renal cancer cells; Homo sapiens, 786-0, 786-O renal cancer cells, ATP luminescence assay, read-out: EC50): 7.16
5 | CC[C@H](C)[C@H](NC(=O)[C@H]1CCCCN1C)C(=O)N(C)[C@H](C[C@@H](OC(C)=O)c1nc(C(=O)N[C@@H](Cc2ccccc2)C[C@H](C)C(=O)O)cs1)C(C)C [Compound A, reference compound] | 8.62 | 8.92 | 
6 | CCOC(=O)C(C)C[C@H](Cc1ccccc1)NC(=O)c1csc([C@@H](C[C@H](C(C)C)N(CCc2ccc(N)cc2)C(=O)[C@@H](NC(=O)[C@H]2CCCCN2C)[C@@H](C)CC)OC(=O)NC)n1 (some centres unmarked) [(I-5)] | 7.71 | 7.64 | 
7 | CC[C@H](C)[C@H](NC(=O)[C@H]1CCCCN1C)C(=O)N(C)[C@H](C[C@@H](OC(=O)N(C)C)c1nc(C(=O)N[C@@H](Cc2ccc(N)cc2)C[C@H](C)C(=O)O)cs1)C(C)C [Compound 75c] |  |  | pEC50 (N87 gastric cancer cells): 8.27
8 | CC[C@H](C)[C@H](NC(=O)[C@H]1CCCCN1C)C(=O)N(CCc1ccc(N)cc1)[C@H](C[C@@H](OC(=O)NC)c1nc(C(=O)N[C@@H](Cc2ccccc2)CC(C)C(=O)OC)cs1)C(C)C (some centres unmarked) [(I-6)] | 8.00 | 7.64 | 
